# Laboratory results from DBAASP.
# Assays:
# Test in all cases: ≥ marks a high value that may be exact or a test limit, other limits are often not marked, values filed in µg/mL are converted to µM
# [1] = system: Acinetobacter baumannii ATCC 19606
# [2] = system: Escherichia coli ATCC 25922
# [3] = system: Pseudomonas aeruginosa ATCC 27853
# [4] = system: Staphylococcus aureus ATCC 25923
# [5] = system: Enterococcus faecalis ATCC 29212
# [6] = system: Staphylococcus aureus NCTC 8325
# [7] = system: Candida albicans ATCC 90028
# [8] = system: Candida albicans ATCC 10231
# [9] = system: Staphylococcus aureus ATCC 29213
Compound,MIC [2] [µM],MIC [6] [µM],MIC [7] [µM],other results
CC[C@H](C)[C@H](NC(=O)[C@H](CC(C)C)NC(=O)[C@H](CO)NC(=O)[C@@H](NC(=O)[C@H](CC(C)C)NC(=O)[C@H](CO)NC(=O)[C@@H]1CCCN1C(=O)[C@H](CC(C)C)NC(=O)CNC(=O)[C@H](CCCCN)NC(=O)[C@H](C)NC(=O)[C@H](CC(C)C)NC(=O)[C@H](C)NC(=O)CNC(=O)[C@@H](NC(=O)[C@@H](NC(=O)[C@H](CO)NC(=O)CNC(=O)[C@H](Cc1ccccc1)NC(=O)[C@@H](N)Cc1ccccc1)[C@@H](C)CC)[C@@H](C)CC)[C@@H](C)CC)C(=O)N[C@@H](CCCCN)C(=O)N[C@@H](CCCCN)C(N)=O [FFGSIIGALAKGLPSLISLIKK],6,12.5,,
CC[C@H](C)[C@@H]1NC(=O)[C@H](C)NC(=O)[C@@H](NC(=O)[C@H](Cc2ccccc2)NC(=O)[C@@H](NC(=O)[C@H](CCCCN)NC(=O)[C@@H]2CCCN2C(=O)[C@H](CC(C)C)NC(=O)[C@H](Cc2ccccc2)NC(=O)[C@H](CCCCN)NC(=O)[C@H](C)NC(=O)[C@H](C)NC(=O)[C@H](CCSC)NC(=O)CNC(=O)[C@H](C)NC(=O)[C@@H](NC(=O)[C@H](Cc2ccccc2)NC(=O)[C@@H]2CCCN2C(=O)[C@H](CC(C)C)NC(=O)[C@@H](N)Cc2ccccc2)[C@@H](C)CC)[C@@H](C)CC)CSSC[C@@H](C(=O)O)NC(=O)[C@H](CCCCN)NC(=O)[C@H](CCCCN)NC(=O)[C@H](CO)NC1=O [FLPFIAGMAAKFLPKIFCAISKKC],,2,,
CC[C@H](C)[C@H](NC(=O)[C@H](CCCCN)NC(=O)CNC(=O)[C@H](Cc1ccccc1)NC(=O)[C@H](CC(C)C)NC(=O)CN)C(=O)N[C@@H](CC(C)C)C(=O)NCC(=O)N[C@H](C(=O)NCC(=O)N[C@@H](CCCCN)C(=O)N[C@@H](CCCCN)C(=O)N[C@H](C(=O)N[C@@H](CC(C)C)C(=O)N[C@H]1CSSC[C@@H](C(=O)O)NC(=O)[C@H](CCSC)NC(=O)CNC(=O)[C@H](CO)NC(=O)[C@H](CC(C)C)NC(=O)CNC1=O)C(C)C)C(C)C [GLFGKILGVGKKVLCGLSGMC],3,12.5,≥ 50,
CC[C@H](C)[C@H](NC(=O)[C@H](C)NC(=O)[C@H](CCC(=O)O)NC(=O)[C@H](Cc1cnc[nH]1)NC(=O)[C@H](Cc1ccccc1)NC(=O)CNC(=O)[C@H](CCC(N)=O)NC(=O)[C@H](Cc1ccccc1)NC(=O)[C@@H](NC(=O)[C@H](CCCCN)NC(=O)[C@H](CCCCN)NC(=O)[C@H](CC(C)C)NC(=O)[C@H](C)NC(=O)[C@H](CC(N)=O)NC(=O)[C@H](CC(C)C)NC(=O)CN)C(C)C)C(=O)N[C@@H](CCCCN)C(=O)N[C@@H](CC(C)C)C(=O)N[C@H](C(=O)N[C@@H](CC(N)=O)C(=O)N[C@@H](CC(N)=O)C(=O)N[C@@H](Cc1cnc[nH]1)C(=O)N[C@H](C(=O)N[C@@H](CCC(N)=O)C(=O)O)C(C)C)[C@@H](C)CC [GLNALKKVFQGFHEAIKLINNHVQ],> 80,≥ 160,,
CC[C@H](C)[C@H](NC(=O)[C@H](CC(C)C)NC(=O)[C@H](CC(C)C)NC(=O)[C@@H]1CCCN1C(=O)[C@H](CCCCN)NC(=O)[C@H](CC(C)C)NC(=O)[C@H](CCCCN)NC(=O)[C@@H]1CCCN1C(=O)[C@H](CC(C)C)NC(=O)[C@H](CC(C)C)NC(=O)[C@H](CC(C)C)NC(=O)[C@H](CCCCN)NC(=O)[C@H](CC(C)C)NC(=O)[C@H](CC(C)C)NC(=O)[C@H](CCCCN)NC(=O)[C@@H](N)Cc1ccc(O)cc1)C(=O)N[C@@H](CCCCN)C(=O)N[C@@H](CC(C)C)C(N)=O [YKLLKLLLPKLKPLLIKL],,,,MIC [8]: 67.3 µM; MIC [3]: 5.27 µM; MIC [9]: 2.28 µM

# Second part, led by results:
MIC [2] [µM],MIC [6] [µM],MIC [7] [µM],Compound,other results
> 164,,,CSCC[C@H](NC(=O)[C@H](CCCCN)NC(=O)[C@H](CC(C)C)NC(=O)[C@H](CC(C)C)NC(=O)[C@H](Cc1cnc[nH]1)NC(=O)[C@@H]1CCCN1C(=O)[C@H](CC(C)C)NC(=O)[C@H](CC(C)C)NC(=O)[C@H](Cc1c[nH]c2ccccc12)NC(=O)[C@H](CC(C)C)NC(=O)[C@H](CCCCN)NC(=O)[C@H](CCC(=O)O)NC(=O)CNC(=O)[C@H](C)NC(=O)[C@@H](NC(=O)[C@H](C)N)C(C)C)C(=O)N[C@@H](CC(C)C)C(=O)N[C@@H](CC(C)C)C(=O)N[C@H](C(=O)N1CCC[C@H]1C(=O)N[C@H](C(=O)N1CCC[C@H]1C(N)=O)[C@@H](C)O)[C@@H](C)O [AVAGEKLWLLPHLLKMLLTPTP],MIC [1]: > 164 µM; MIC [3]: > 164 µM; MIC [4]: 164 µM; MIC [5]: 164 µM
12.5,12.5,,CC[C@H](C)[C@H](NC(=O)[C@H](CCSC)NC(=O)[C@H](CO)NC(=O)CNC(=O)[C@H](Cc1ccccc1)NC(=O)[C@@H](N)Cc1ccccc1)C(=O)NCC(=O)N[C@@H](C)C(=O)N[C@@H](CC(C)C)C(=O)N[C@@H](C)C(=O)N[C@@H](CCCCN)C(=O)NCC(=O)N[C@@H](CC(C)C)C(=O)N1CCC[C@H]1C(=O)N[C@@H](CO)C(=O)N[C@@H](CC(C)C)C(=O)N[C@H](C(=O)N[C@@H](CO)C(=O)N[C@@H](CC(C)C)C(=O)N[C@H](C(=O)N[C@@H](CCCCN)C(=O)N[C@@H](CCCCN)C(N)=O)[C@@H](C)CC)[C@@H](C)CC [FFGSMIGALAKGLPSLISLIKK],
5,7,7,CC[C@H](C)[C@@H]1NC(=O)[C@H](C)NC(=O)[C@@H](NC(=O)[C@H](Cc2ccccc2)NC(=O)[C@@H](NC(=O)[C@H](CCCCN)NC(=O)[C@H](CO)NC(=O)[C@H](Cc2ccccc2)NC(=O)[C@@H](NC(=O)[C@H](CCCCN)NC(=O)[C@H](C)NC(=O)[C@H](C)NC(=O)[C@@H](NC(=O)[C@H](CO)NC(=O)[C@H](C)NC(=O)[C@@H](NC(=O)[C@@H](NC(=O)[C@@H]2CCCN2C(=O)[C@H](CC(C)C)NC(=O)[C@@H](N)Cc2ccccc2)[C@@H](C)CC)[C@@H](C)CC)C(C)C)C(C)C)[C@@H](C)CC)CSSC[C@@H](C(=O)O)NC(=O)[C@H](CCCCN)NC(=O)[C@H](CCCCN)NC(=O)[C@H](CO)NC1=O [FLPIIASVAAKVFSKIFCAISKKC],
4,9,≥ 40,CC[C@H](C)[C@H](NC(=O)CN)C(=O)N[C@@H](Cc1ccccc1)C(=O)N[C@@H](CC(N)=O)C(=O)N[C@H](C(=O)N[C@@H](Cc1ccccc1)C(=O)N[C@@H](CCCCN)C(=O)NCC(=O)N[C@@H](C)C(=O)N[C@@H](CC(C)C)C(=O)N[C@@H](CCCCN)C(=O)N[C@H](C(=O)N[C@@H](C)C(=O)NCC(=O)N[C@@H](CCCCN)C(=O)N[C@@H](Cc1cnc[nH]1)C(=O)N[C@H](C(=O)N[C@@H](C)C(=O)NCC(=O)N[C@@H](CO)C(=O)N[C@@H](CC(C)C)C(=O)N[C@@H](CC(C)C)C(=O)N[C@@H](CC(N)=O)C(=O)N[C@@H](CCC(N)=O)C(=O)N[C@@H](CC(C)C)C(=O)N[C@@H](CCCCN)C(=O)N[C@H]1CSSC[C@@H](C(=O)O)NC(=O)[C@H](CCC(=O)O)NC(=O)CNC(=O)[C@H](CO)NC(=O)[C@H](C(C)C)NC(=O)[C@H](CCCCN)NC1=O)C(C)C)[C@@H](C)O)C(C)C [GIFNVFKGALKTAGKHVAGSLLNQLKCKVSGEC],
